Assay results: patent EP0845217A1, “Inhibiting undesirable taste in oral compositions” (priority 1996, dated 1998)

Tested on: mud puppy taste cells
Experiment: Response of isolated taste cells to bitter-tasting compounds, intracellular calcium fluorescence
Type: cell-based
Protocol: Taste cells are isolated from the mud puppy, a type of salamander (S. C. Kinnamon, et al, Chemical Senses 13: 355 - 366, 1988). Briefly, a fresh mud puppy tongue is incubated with collagenase, the non-gustatory epithelium is peeled off the surface, and individual taste buds are gently drawn into a micropipette using a dissecting microscope at 50X magnification. The taste buds are plated into small vessels, that are coated with Cell-Tak, containing culture media. The taste cells can remain viable up to 18 days and maintain normal functions (C. Ruiz, et al, Experimental Cell Biology of Taste and Olfaction, Current Techniques and Protocols, A. I. Spielman and J. G. Brand, eds., CRC Press, 1995, pp. 79 - 84). The taste cells are labeled intracellularly with a marker compound that fluoresces in a dose-dependent fashion to calcium ion concentration. Since an increase in the intracellular calcium ion concentration is one of the last steps in converging biochemical signal transduction pathways for bitterness, the fluorescent marker correlates with taste cell response to bitterness (D. Restrepo, et al, Experimental Cell Biology of Taste and Olfaction, Current Techniques and Protocols, A. I. Spielman and J. G. Brand, eds., CRC Press, 1995, pp. 387 - 398). Labeled taste cells are observed microscopically using image analysis software. Using a micropipette, taste cells are exposed to bitter-tasting compounds by adding the compounds in media near the taste cell. Cells that respond to the bitter-tasting compound show an increase in fluorescence intensity. Bitter inhibitors are tested by adding them to the test solution with the bitter-tasting compound. The response of individual taste cells to bitter-tasting compounds and to bitter-tasting compounds plus inhibitor are monitored by measuring the fluorescent intensity using a microscope. Images are stored electronically and image analysis software is used to analyze the data (D. Restrepo, et al, Biophysical Journal 64: 1961 - 1966, 1993).

For vanillylmonophosphate [VMP], the “effect on taste cell response to denatonium benzoate” value (inhibitor mixed with denatonium benzoate) was “decreases the taste cell response” and the “effect on taste cell response to dextromethorphan” value (inhibitor mixed with dextromethorphan) was “decreases the taste cell response”.
